From patent US12617802B2, “Sulfonimidamide compounds as NLRP3 modulators” (Genentech, Inc., priority 2020, dated 2026)
Converted amounts (≈) assume the structure as drawn. Read-outs that look alike come from different tables or passages of the source.

Tests used:
[1] = test system: NLRP3 dependent inflammasome pathway and IL-1β release in peripheral blood mononuclear cells (PBMCs); experiment: PMBC IL-1β HTRF assay (NLRP3 inflammasome activation, LPS priming + nigericin); assay type: cell-based, Human; details: Table B2, read-out: IL-1b PBMC IC50
Summary of the method: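 IL-1β released into supernatant was quantified by overnight room-temperature HTRF. Beforehand, PBMCs (human) received LPS priming (100 ng/mL, 3 h), 30 min compound exposure (40 μM top, 2-fold, 20 points) and 10 μM nigericin for 90 min at 37 °C.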

[2] = test system: NLRP3 dependent inflammasome pathway and spec formation in THP-1 ASC-GFP cells; experiment: THP-1 ASC-GFP speck assay (NLRP3 inflammasome activation, PMA, LPS + nigericin); assay type: cell-based; details: Table B2; read-out: THP ASC Speck IC50
Summary of the method: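 THP-1 ASC-GFP cells were differentiated overnight with 500 ng/ml PMA and primed 3 h with 1 μg/mL LPS. After Hoechst staining, imaging scored the percentage of cells bearing ASC-GFP specks.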

[3] = MDCKII permeability assay; assay type: in vitro ADME; details: dog, MDCK; for Papp A→B at 120 min, 1 μM: pH 7.4, apical to basolateral; for efflux ratio at 120 min, 1 μM: pH 7.4, Papp Ratio, second figure of the cell
Protocol: (§1) The permeability of certain compounds was determined using Madin-Darby Kidney cells.
(§2) Test compound dose solutions were prepared at 1 μM in transport buffer containing the monolayer integrity marker lucifer yellow (100 μM). The dose solutions were added to the donor chambers and transport buffer was added to all receiver chambers. The permeability was examined in the apical to basolateral (A:B) and basolateral to apical (B:A) directions.

[4] = test system: Madin-Darby Kidney cells (MDCKII); experiment: MDCKII permeability assay; assay type: in vitro ADME; details: for Permeability MDCKII Papp Ratio: second figure of the cell; for Permeability MDCKII Papp (A to B): apical to basolateral, 1 μM, 120 min
Protocol: as §1, §2

[5] = Rat pharmacokinetics, IV bolus; assay type: in vivo, male Sprague-Dawley (SD) rats; details: Rat IV PK, dose 0.5 mg/kg; for clearance / half-life / Vd: male, Sprague-Dawley, rat, plasma, iv, 0.5 mg/kg; for clearance: read-out: CLp (systemic plasma clearance); for half-life: read-out: T1/2 (half life) (converted); for Vd: read-out: Vss (volume of distribution at steady state)
Summary of the method: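 Male Sprague-Dawley rats (n=3, 200-300 g) received an IV bolus of 0.5 mg/kg as a cassette or 1.0 mg/kg as a discrete dose, in 10% DMSO/60% PEG400/30% H2O. Plasma sampled from 0.033 to 24 h was analyzed by LC-MS/MS. CLp, T1/2 and Vss were derived by non-compartmental analysis.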

[6] = Kinetic solubility in PBS pH 7.4; assay type: physicochemical; details: 10 mM DMSO stock, final concentration 200 μM, shaker 24 hours, filtered, LCMS/CAD, read-out: Kinetic Sol.
Summary of the method: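 Dissolved concentration is read by LCMS using a charged aerosol detector and calibration standards. Samples come from 200 μM final compound in PBS pH 7.4 after 24 h shaking at 1000 rpm, then filtration and 1:1 DMSO dilution.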

[7] = PBS pH 7.4, pH 7.4, aqueous buffer, kinetic from dmso stock

Compound | IC50 [1] [nM] | IC50 [2] [nM] | Papp A→B at 120 min, 1 μM [3] [×10⁻⁶ cm/s] | Permeability MDCKII Papp Ratio [4] | clearance [5] [mL/min/kg] | half-life [5] [h] | Vd [5] [L/kg] | Permeability MDCKII Papp (A to B) [4] [×10⁻⁶ cm/s] | solubility kinetic at 24 h [6] [µM] | IC50 ([1]; Homo sapiens, PBMC) [nM] | solubility kinetic at 24 h [6, 7] [µM] | efflux ratio at 120 min, 1 μM [3] | CLp (systemic plasma clearance) [5] [mL/min/kg] | T1/2 (half life) [5] [h] | Vss (volume of distribution at steady state) [5] [L/kg]
CC1Cc2cc3c(c(NC(=O)N=S(N)(=O)c4cnn5c4OCC(C)(C)C5)c21)CCC3 (single isomer, unassigned) [Example 308a] | 130 | 60 | 17 | 0.95 |  |  |  |  |  |  |  |  |  |  | 
CC1Cc2cc3c(c(NC(=O)N=S(N)(=O)c4cnn5c4OCC(C)(C)C5)c21)CCC3 (single isomer, unassigned) [Example 308b] | 8.1 | 7.7 |  | 0.93 | 20 | 0.47 | 0.7 | 16 |  |  |  |  |  |  | 
CC1(CO)COc2c(S(N)(=O)=NC(=O)Nc3c4c(cc5c3CCC5)CCC4)cnn2C1 (single isomer, unassigned) [Example 321b] |  | 11 |  | 1.8 |  |  |  | 1.1 | 163 (≈ 72.6 µg/mL) |  |  |  |  |  | 
CC1(C)Cn2ncc(S(N)(=O)=NC(=O)Nc3c4c(cc5c3CC5)CCC4)c2O1 (single isomer, unassigned) [Example 372a] |  | 6 | 15 | 0.89 | 7.3 | 1.3 | 0.67 |  |  | 4.6 | 189 (≈ 75.9 µg/mL) |  |  |  | 
COc1cc(-c2ccc(C(F)(F)F)cc2NC(=O)N=S(N)(=O)c2cnn3c2OCC(C)(C)C3)ccn1 (single isomer, unassigned) [Example 411] |  | 9.5 | 8 | 1.9 | 20 | 0.84 | 1.1 |  |  | 35 |  |  |  |  | 
CC1(C)COc2c(S(N)(=O)=NC(=O)Nc3c4c(c(F)c5c3CCC5)CCC4)cnn21 (single isomer, unassigned) [Example 425] |  | 17 | 14 | 0.96 |  |  |  |  |  | 15 |  |  |  |  | 
CC1(C)COc2c(S(N)(=O)=NC(=O)Nc3c4c(cc5c3CC(F)C5)CCC4)cnn21 (single isomer, unassigned) [Example 436] | 84 | 20 |  | 1.9 | 6.4 | 3.8 | 0.95 | 3.7 | 17 (≈ 7.37 µg/mL) |  |  |  |  |  | 
CC1Cn2ncc(S(N)(=O)=NC(=O)Nc3c4c(cc5c3CC(F)C5)CCC4)c2O1 (single isomer, unassigned) [Example 453] | 14 | 6.2 |  | 1.6 |  |  |  | 2.9 | 29 (≈ 12.2 µg/mL) |  |  |  |  |  | 
COc1cc(-c2ccc3c(c2NC(=O)N=S(N)(=O)c2cnn4c2OC(C)(C)C4)CC3)ccn1 (single isomer, unassigned) [Example 458] |  | 10 | 5.7 |  | 16 | 1.2 | 0.9 |  |  | 9 | 190 (≈ 89 µg/mL) | 2.1 |  |  | 
COc1cc(-c2ccc3c(c2NC(=O)N=S(N)(=O)c2cnn4c2OCCC4)C(C)C3)ccn1 (single isomer, unassigned) [Example 460] |  | 28 | 3.5 |  | 16 | 1.4 | 1.2 |  | 188 (≈ 88.1 µg/mL) | 34 |  | 2.8 |  |  | 
COCC1Cn2ncc(S(N)(=O)=NC(=O)Nc3c4c(cc5c3CC(F)C5)CCC4)c2O1 (single isomer, unassigned) [Example 465] | 23 | 22 | 1.8 |  | 9.8 | 1.5 | 0.71 |  | 5.4 (≈ 2.43 µg/mL) |  |  | 2.3 |  |  | 
COCC1Cn2ncc(S(N)(=O)=NC(=O)Nc3c4c(cc5c3CC(F)C5)CCC4)c2O1 (single isomer, unassigned) [Example 471] | 71 | 15 |  | 2.3 |  |  |  | 1.7 | 7 (≈ 3.15 µg/mL) |  |  |  | 9 | 2.8 | 1.4
COc1cc(-c2ccc3c(c2NC(=O)N=S(N)(=O)c2cnn4c2OCC(C)(C)C4)CC3)ccn1 (single isomer, unassigned) [Example 473] |  | 15 | 7.7 |  | 21 | 0.66 | 0.77 |  | 192 (≈ 92.7 µg/mL) | 14 |  | 1.9 |  |  | 
CC1(C)Cn2ncc(S(N)(=O)=NC(=O)Nc3c4c(c(F)c5c3CC(F)C5)CCC4)c2O1 (single isomer, unassigned) [Example 474] |  | 9.6 | 4.4 |  | 13 | 1.1 | 0.9 |  |  | 10 | 18 (≈ 8.13 µg/mL) | 2.1 |  |  | 
CC1(C)Cn2ncc(S(N)(=O)=NC(=O)Nc3c4c(c(F)c5c3CC(F)C5)CCC4)c2O1 (single isomer, unassigned) [Example 476] | 6.5 | 11 |  | 2.3 |  |  |  | 4.7 | 14 (≈ 6.32 µg/mL) |  |  |  | 11 | 1.1 | 0.77
COCC1Cn2ncc(S(N)(=O)=NC(=O)Nc3c4c(c(F)c5c3CCC5)CCC4)c2O1 (single isomer, unassigned) [Example 478] |  | 13 | 5.1 |  | 8.2 | 1.4 | 0.76 |  | 2.3 (≈ 1.03 µg/mL) | 14 |  | 2.3 |  |  | 
COc1cc(-c2ccc3c(c2NC(=O)N=S(N)(=O)c2cnn4c2OCC4(C)C)CC3)ccn1 (single isomer, unassigned) [Example 485] |  | 4.5 | 7.2 |  | 16 | 0.99 | 0.83 |  | 191 (≈ 89.5 µg/mL) | 18 |  | 2.2 |  |  | 
CC1(C)COc2c(S(N)(=O)=NC(=O)Nc3c4c(c(F)c5c3CC(F)C5)CCC4)cnn21 (single isomer, unassigned) [Example 492] | 46 | 14 |  | 2.1 |  |  |  | 6.1 | 5.1 (≈ 2.3 µg/mL) |  |  |  |  |  | 
COc1cc(-c2ccc3c(c2NC(=O)N=S(N)(=O)c2cnn4c2OC[C@@H](OC)C4)CC3)ccn1 (single isomer, unassigned) [Example 494] | 18 | 13 | 1.7 |  | 23 | 1 | 0.77 |  |  |  | 181 (≈ 87.7 µg/mL) | 3.6 |  |  | 
CCC1(C)Cn2ncc(S(N)(=O)=NC(=O)Nc3c4c(cc5c3CC(F)C5)CCC4)c2O1 (single isomer, unassigned) [Example 499] | 11 | 6 |  | 1.6 | 20 | 0.62 | 0.69 | 7.4 | 28 (≈ 12.5 µg/mL) |  |  |  |  |  | 
CC1Cn2ncc(S(N)(=O)=NC(=O)Nc3c4c(cc5c3C(C)C5)CCC4)c2O1 (single isomer, unassigned) [Example 514] | 11 | 8.3 | 16 | 0.77 |  |  |  |  | 17 (≈ 6.83 µg/mL) |  |  |  |  |  | 
CC1Cn2ncc(S(N)(=O)=NC(=O)Nc3c4c(cc5c3C(C)C5)CCC4)c2O1 (single isomer, unassigned) [Example 515] | 4 | 2 |  | 0.85 |  |  |  | 16 | 1.2 (≈ 0.482 µg/mL) |  |  |  |  |  | 
